Like-named read-outs stand apart in the source and are kept apart here. Marks after values point to notes of the source that are not given here.
Test system: female obese Zucker rats
Assay: Serum lipid and glycemic control variables in chow-fed obese female Zucker rats, daily oral gavage for two weeks
Assay type: in vivo, rat
Conditions: for change in vivo at 100 mg/kg: Rattus norvegicus, Table 9; for Glucose / HDL-C / NEFA / Non-HDL-C / TG / Insulin: serum, mean ± SEM; for Insulin: Tables 10, 11
Procedure, shortened: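 Female obese Zucker fa rats, 10–12 wk, 400–500 g, chow-fed, dosed daily by oral gavage for 14 days in CMC/Tween 20 or ethanol/PEG-200 vehicle. After a 6-h fast, serum was sampled pre-dose, day 7 and day 14. Triglycerides, total cholesterol, NEFA and β-hydroxybutyrate were measured, plus lipoprotein cholesterol by gel-filtration profiling.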

Compound: CC(C)(CO)CCCCC(=O)CCCCC(C)(C)CO [Compound 214c, 1,13-Dihydroxy-2,2,12,12-tetramethyltridecan-7-one]
- HDL-C, percent increase (+) or decrease (−) of the pretreatment control value (3 mg/kg daily oral, 1 wk): (−10) percent
- HDL-C, percent increase (+) or decrease (−) of the pretreatment control value (3 mg/kg daily oral, 2 wk): (−19) percent
- NEFA, percent increase (+) or decrease (−) of the pretreatment control value (3 mg/kg daily oral, 2 wk): (+145) percent
- HDL-C, percent increase (+) or decrease (−) of the pretreatment control value (10 mg/kg daily oral, 1 wk): (+113) percent
- NEFA, percent increase (+) or decrease (−) of the pretreatment control value (10 mg/kg daily oral, 1 wk): (−18) percent
- TG, percent increase (+) or decrease (−) of the pretreatment control value (10 mg/kg daily oral, 1 wk): (−23) percent
- HDL-C, percent increase (+) or decrease (−) of the pretreatment control value (10 mg/kg daily oral, 2 wk): (+115) percent
- HDL-C, percent increase (+) or decrease (−) of the pretreatment control value (30 mg/kg daily oral, 1 wk): (+140) percent
- NEFA, percent increase (+) or decrease (−) of the pretreatment control value (30 mg/kg daily oral, 1 wk): (−21) percent
- TG, percent increase (+) or decrease (−) of the pretreatment control value (30 mg/kg daily oral, 1 wk): (−27) percent
- HDL-C, percent increase (+) or decrease (−) of the pretreatment control value (30 mg/kg daily oral, 2 wk): (+142) percent
- Non-HDL-C, percent increase (+) or decrease (−) of the pretreatment control value (30 mg/kg daily oral, 2 wk): (+127) percent
- HDL-C, percent increase (+) or decrease (−) of the pretreatment control value (100 mg/kg daily oral, 1 wk): (+173) percent
- NEFA, percent increase (+) or decrease (−) of the pretreatment control value (100 mg/kg daily oral, 1 wk): (−30) percent
- TG, percent increase (+) or decrease (−) of the pretreatment control value (100 mg/kg daily oral, 1 wk): (−54) percent
- HDL-C, percent increase (+) or decrease (−) of the pretreatment control value (100 mg/kg daily oral, 2 wk): (+176) percent
- NEFA, percent increase (+) or decrease (−) of the pretreatment control value (100 mg/kg daily oral, 2 wk): (−33) percent
- TG, percent increase (+) or decrease (−) of the pretreatment control value (100 mg/kg daily oral, 2 wk): (−33) percent
- change in vivo at 100 mg/kg (168 h, 100 mg/kg daily oral, 1 wk, read-out: HDL-Cholesterol, Percent Change from Pre-Treatment): 110%
- change in vivo at 100 mg/kg (168 h, 100 mg/kg daily oral, 1 wk, read-out: NonHDL-Cholesterol, Percent Change from Pre-Treatment): -23%
- change in vivo at 100 mg/kg (168 h, 100 mg/kg daily oral, 1 wk, read-out: TG, Percent Change from Pre-Treatment): -54%
- change in vivo at 100 mg/kg (336 h, 100 mg/kg daily oral, 2 wk, read-out: HDL-Cholesterol, Percent Change from Pre-Treatment): 126%
- change in vivo at 100 mg/kg (336 h, 100 mg/kg daily oral, 2 wk, read-out: NonHDL-Cholesterol, Percent Change from Pre-Treatment): -10%
- change in vivo at 100 mg/kg (336 h, 100 mg/kg daily oral, 2 wk, read-out: TG, Percent Change from Pre-Treatment): -29%
- Glucose (3 mg/kg daily oral, 1 wk): 106 ± 2 mg/dL
- HDL-C (3 mg/kg daily oral, 1 wk): 43 ± 4^a mg/dl
- NEFA (3 mg/kg daily oral, 1 wk): 1.2 ± 0.05 mg/dL
- Non-HDL-C (3 mg/kg daily oral, 1 wk): 25 ± 3 mg/dL
- TG (3 mg/kg daily oral, 1 wk): 800 ± 75 mg/dL
- Insulin (3 mg/kg daily oral, 1 wk): 7.5 ± 0.8 ng/mL
- Glucose (3 mg/kg daily oral, 2 wk): 103 ± 3 mg/dL
- HDL-C (3 mg/kg daily oral, 2 wk): 39 ± 4^a mg/dl
- NEFA (3 mg/kg daily oral, 2 wk): 1.6 ± 0.13
- Non-HDL-C (3 mg/kg daily oral, 2 wk): 22 ± 2 mg/dL
- TG (3 mg/kg daily oral, 2 wk): 781 ± 65 mg/dL
- Insulin (3 mg/kg daily oral, 2 wk): 7.8 ± 0.6 ng/mL
- Glucose (10 mg/kg daily oral, 1 wk): 110 ± 2 mg/dL
- HDL-C (10 mg/kg daily oral, 1 wk): 52 ± 3^a mg/dl
- NEFA (10 mg/kg daily oral, 1 wk): 0.98 ± 0.08
- Non-HDL-C (10 mg/kg daily oral, 1 wk): 21 ± 2 mg/dL
- TG (10 mg/kg daily oral, 1 wk): 602 ± 37^a mg/dl
- Insulin (10 mg/kg daily oral, 1 wk): 7.5 ± 0.4 ng/mL
- Glucose (10 mg/kg daily oral, 2 wk): 110 ± 3 mg/dL
- HDL-C (10 mg/kg daily oral, 2 wk): 53 ± 4^a mg/dl
- NEFA (10 mg/kg daily oral, 2 wk): 1.0 ± 0.10 mg/dL
- Non-HDL-C (10 mg/kg daily oral, 2 wk): 25 ± 2 mg/dL
- TG (10 mg/kg daily oral, 2 wk): 730 ± 52 mg/dL
- Insulin (10 mg/kg daily oral, 2 wk): 7.8 ± 0.5 ng/mL
- Glucose (30 mg/kg daily oral, 1 wk): 112 ± 13 mg/dL
- HDL-C (30 mg/kg daily oral, 1 wk): 60 ± 3^a mg/dl
- NEFA (30 mg/kg daily oral, 1 wk): 1.1 ± 0.05
- Non-HDL-C (30 mg/kg daily oral, 1 wk): 28 ± 2 mg/dL
- TG (30 mg/kg daily oral, 1 wk): 726 ± 49^a mg/dl
- Insulin (30 mg/kg daily oral, 1 wk): 0.091 ± 0.006 ng/mL
- Glucose (30 mg/kg daily oral, 2 wk): 120 ± 3 mg/dL
- HDL-C (30 mg/kg daily oral, 2 wk): 61 ± 4^a mg/dl
- NEFA (30 mg/kg daily oral, 2 wk): 1.2 ± 0.10 mg/dL
- Non-HDL-C (30 mg/kg daily oral, 2 wk): 38 ± 5^a mg/dl
- TG (30 mg/kg daily oral, 2 wk): 985 ± 110 mg/dL
- Insulin (30 mg/kg daily oral, 2 wk): 0.098 ± 0.007 ng/mL
- Glucose (100 mg/kg daily oral, 1 wk): 120 ± 5 mg/dL
- HDL-C (100 mg/kg daily oral, 1 wk): 78 ± 5^a mg/dl
- NEFA (100 mg/kg daily oral, 1 wk): 0.98 ± 0.04
- Non-HDL-C (100 mg/kg daily oral, 1 wk): 23 ± 1 mg/dL
- TG (100 mg/kg daily oral, 1 wk): 485 ± 29^a mg/dl
- Insulin (100 mg/kg daily oral, 1 wk): 0.109 ± 0.01 ng/mL
- Glucose (100 mg/kg daily oral, 2 wk): 118 ± 3 mg/dL
- HDL-C (100 mg/kg daily oral, 2 wk): 79 ± 6^a mg/dl
- NEFA (100 mg/kg daily oral, 2 wk): 0.94 ± 0.04
- Non-HDL-C (100 mg/kg daily oral, 2 wk): 32 ± 2 mg/dL
- TG (100 mg/kg daily oral, 2 wk): 702 ± 53^a mg/dl
- Insulin (100 mg/kg daily oral, 2 wk): 0.11 ± 0.009 ng/mL

From US7304093B2, “Ketone compounds and compositions for cholesterol management and related uses” (Esperion Therapeutics, Inc., priority 2000, dated 2007)
